This is an account of results in PubChem BioAssay AID488877 (The Scripps Research Institute Molecular Screening Center, 2010).

The structures appear in SMILES notation. Activity calls are given as the source filed them. No rule for the calls is given here.

The assay has as its system Vero cells SARS-CoV infected, viability, ATP luminescence. The assay is described as follows: PubChem AID 488877.

`CC(C)(C)NC(=O)C(c1cccnc1)N(C(=O)c1ccco1)c1ccc(C(C)(C)C)cc1` (stereo unspecified): the EC50 (usually the concentration giving half of the maximal effect) was > 10 µM (inactive).
